The record followed here is patent publication US20230065953A1, “NOVEL HETEROARYL-TRIAZOLE COMPOUNDS AS PESTICIDES” (Bayer Aktiengesellschaft, priority 2019, published 2023).

What all share (type): in vivo
The test system of experiment [1] is fall armyworm larvae (Spodoptera frugiperda). The experiment can be described thus: Spodoptera frugiperda spray test (SPODFR, maize leaf sections), comparison. The settings on record: 168 h, 7 dat, read-out: % Efficacy. On the procedure: Spodoptera fruaiperda—Spray Test (SPODFR) • Solvent: 78.0 parts by weight acetone • 1.5 parts by weight dimethylformamide • Emulsifier: alkylarylpolyglycol ether
To produce a suitable preparation of active compound, 1 part by weight of active compound is mixed with the stated amount of solvents and is diluted with water, containing an emulsifier concentration of 1000 ppm, to the desired concentration. Further test concentrations are prepared by dilution with emulsifier containing water.
Maize (Zea mays) leaf sections are sprayed with a preparation of the active ingredient of the desired concentration. Once dry, the leaf sections are infested with fall armyworm larvae (Spodoptera frugiperda).
After the specified period of time, mortality in % is determined in comparison to the untreated control plant. 100% means all caterpillars have been killed and 0% means none of the caterpillars have been killed.

The subject of experiment [2] is larvae of the banded cucumber beetle (Diabrotica balteata). The experiment can be described thus: Diabrotica balteata spray test. The settings on record: 168 h, 100 g/ha (=32 μg/well), wheat seeds, after 7 days, read-out: efficacy (seedling growth). The method, boiled down: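 Wheat seeds germinated 1 day on agar were sprayed with compound in acetone/dimethylformamide with alkylarylpolyglycol ether emulsifier, diluted in emulsifier-containing water. Each unit then received 10-20 larvae, and % efficacy was scored after 7 days.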

Experiment [3] relates to larvae of the southern green stink bug (Nezara viridula). The experiment can be described thus: Nezara viridula spray test. The settings on record: in Hordeum vulgare, 96 h. The method, boiled down: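 Barley plants sprayed with compound in acetone/dimethylformamide, diluted in water with 1000 ppm alkylarylpolyglycol ether emulsifier, then infested with Nezara viridula larvae. Percent mortality read after 4 days (100% = all killed, 0% = none).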

Experiment [4] has the same test system. As to the kind of experiment: Nezara viridula spray test (NEZAVI), comparison. The conditions noted are these: 96 h, 500 g ai/ha, 4 dat, read-out: % Efficacy. On the procedure: Nezara viridula—Spray Test (NEZAVI) • Solvent: 78.0 parts by weight of acetone • 1.5 parts by weight of dimethylformamide • Emulsifier: alkylarylpolyglycol ether
To produce a suitable preparation of active compound, 1 part by weight of active compound is mixed with the stated amount of solvent, and the concentrate is diluted with water, containing an emulsifier concentration of 1000 ppm, to the desired concentration. Further test concentrations are prepared by dilution with emulsifier containing water.
Barley plants (Hordeum vulgare) are sprayed with a test solution containing the desired concentration of the active ingredient and are infested with larvae of the southern green stink bug (Nezara viridula).
After the specified period of time, mortality in % is determined in comparison to the untreated control plant. 100% means all the stink bugs have been killed; 0% means none of the stink bugs have been killed.

The test system of experiment [5] is fall armyworm larvae (Spodoptera frugiperda). The experiment can be described thus: Spodoptera frugiperda spray test (maize leaf sections). The settings on record: 168 h. The method in brief: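 Maize leaf sections sprayed with compound in acetone/dimethylformamide, diluted in water with 1000 ppm alkylarylpolyglycol ether emulsifier. Dried sections infested with fall armyworm larvae. Mortality (%) scored after 7 days; 100% = all caterpillars killed.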

For experiment [6], the system named is larvae of the diamondback moth (Plutella xylostella). As to the kind of experiment: Plutella xylostella spray test (PLUTMA), comparison. The conditions noted are these: 168 h, 7 dat, read-out: % Efficacy. The protocol: Plutella xylostella—spray test (PLUTMA) • Solvent: 14 parts by weight of dimethylformamide • Emulsifier: alkylaryl polyglycol ether
(§1) To produce a suitable preparation of active compound, 1 part by weight of active compound is mixed with the stated amount of solvent and is diluted with water, containing an emulsifier concentration of 1000 ppm, to the desired concentration. Further test concentrations are prepared by dilution with emulsifier containing water. Ammonium salt and/or penetration enhancer in a dosage of 1000 ppm are added to the desired concentration if necessary.
Cabbage leaves (Brassica oleracea) are treated by being sprayed with the preparation of the active compound of the desired concentration and are infested with larvae of the diamondback moth (Plutella xylostella).
After the specified period of time, mortality in % is determined. 100% means all the caterpillars have been killed and 0% means none of the caterpillars have been killed.

The subject of experiment [7] is caterpillars of the fall army worm (Spodoptera frugiperda). As to the kind of experiment: Spodoptera frugiperda spray test (SPODFR, cotton leaves), comparison. The settings on record: 168 h, 7 dat, read-out: % Efficacy. On the procedure: Spodoptera fruaiperda—Spray Test (SPODFR) • Solvent: 14 parts by weight of dimethylformamide • Emulsifier: alkylaryl polyglycol ether
as §1
Cotton leaves (Gossypium hirsutum) are treated by being sprayed with the preparation of the active compound of the desired concentration and are infested with caterpillars of the fall army worm (Spodoptera frugiperda).
After the specified period of time mortality in % is determined. 100% means all the caterpillars have been killed and 0% means none of the caterpillars have been killed.

On to `C[C@H](NC(=O)c1cc(Cl)cc(S(=O)(=O)C(F)(F)F)c1)c1ncnn1-c1ncc(C#N)s1` [I-60], for which the larval mortality at 20 g/ha in experiment [1] (20 g ai/ha) stood at 100%. Moreover, in experiment [1] (100 g ai/ha), the larval mortality at 100 g/ha was 100%. Further, in experiment [2], the pest or weed control at 32 µg/disc, 100 g/ha stood at 100%. In experiment [3], this compound had a mortality at 500 g/ha of 100%. In addition, in experiment [4], the stink bug mortality at 500 g/ha worked out at 100%. For the same compound, the mortality at 100 g/ha in experiment [5] was 100%.

On to `C[C@H](NC(=O)c1cc(Cl)cc(S(=O)(=O)C(F)(F)F)c1)c1ncnn1-c1nccs1` [I-077, reference compound], for which the Emax at 20 g/ha in experiment [1] (20 g ai/ha) came to 33%. For the same compound, the Emax at 100 g/ha in experiment [1] (100 g ai/ha) is 67%. The stink bug mortality at 500 g/ha in experiment [4] is 0%.

Consider `C[C@H](NC(=O)c1cc(Cl)cc(C(F)(F)F)c1)c1ncnn1-c1ncc(C(F)(F)F)s1` [I-085], for which, in experiment [6], the mortality at 20 ppm amounted to 40%. Besides, in experiment [7], the Emax at 4 ppm came out at 20%.

Consider `CNC(=O)c1cnc(-n2ncnc2[C@H](C)NC(=O)c2cc(Cl)cc(S(=O)(=O)C(F)(F)F)c2)s1` [I-110], for which, in experiment [1] (20 g ai/ha), the Emax at 20 g/ha was 67%. The larval mortality at 100 g/ha in experiment [1] (100 g ai/ha) is 100%. Besides, the pest or weed control at 32 µg/disc, 100 g/ha in experiment [2] turned out to be 100%. Also, the mortality at 100 g/ha in experiment [3] amounted to 90%; in experiment [5] it was 100%. Besides, in experiment [3], the mortality at 500 g/ha was found to be 100%. Besides, the stink bug mortality at 500 g/ha in experiment [4] came to 100%.
